From ChEMBL document CHEMBL3272162, “Quinazolines and 1,4-benzodiazepines. 81. s-Triazolo[4,3-a][1,4]benzodiazepines by oxidative cyclization of hydrazones” (1977)

Legend:
Assay type in all cases: functional
Mus musculus [1] = assay: CNS activity in po dosed mouse by inclined screen test
Mus musculus [2] = assay: CNS activity in po dosed mouse assessed as antifighting activity by foot shock test
Mus musculus [3] = assay: CNS activity in po dosed mouse assessed as antagonism against pentylenetetrazole-induced response

CN1C(=O)CN=C(c2ccccc2)c2cc(Cl)ccc21 [DIAZEPAM]
ED50 (Mus musculus [1]): 25 mg/kg | ED50 (Mus musculus [2]): 10 mg/kg | ED50 (Mus musculus [3]): 1.4 mg/kg

OCC(O)c1nnc2n1-c1ccc(Cl)cc1C(c1ccccc1)=NC2 (configuration not stated)
ED50 (Mus musculus [1]): 100 mg/kg | ED50 (Mus musculus [2]): 20 mg/kg | ED50 (Mus musculus [3]): 3.8 mg/kg

[O-][N+]1=C(c2ccccc2)c2cc(Cl)ccc2-n2c(nnc2C(O)CO)C1 (configuration not stated)
ED50 (Mus musculus [1]): > 400 mg/kg | ED50 (Mus musculus [2]): > 100 mg/kg | ED50 (Mus musculus [3]): 620 mg/kg

Cc1nnc2n1-c1ccc(Cl)cc1C(c1ccccc1)=NC2 [ALPRAZOLAM]
ED50 (Mus musculus [1]): 2 mg/kg | ED50 (Mus musculus [2]): 2.5 mg/kg | ED50 (Mus musculus [3]): 0.3 mg/kg

C=Cc1nnc2n1-c1ccc(Cl)cc1C(c1ccccc1F)=NC2
ED50 (Mus musculus [1]): 150 mg/kg | ED50 (Mus musculus [2]): 2.5 mg/kg | ED50 (Mus musculus [3]): 1.3 mg/kg

Clc1ccc2c(c1)C(c1ccccc1)=NCc1nncn1-2 [ESTAZOLAM]
ED50 (Mus musculus [1]): > 400 mg/kg | ED50 (Mus musculus [2]): 0.5 mg/kg | ED50 (Mus musculus [3]): 1.1 mg/kg

Cc1nnc2n1-c1ccc(Cl)cc1C(c1ccccc1)=[N+]([O-])C2
ED50 (Mus musculus [1]): > 400 mg/kg | ED50 (Mus musculus [2]): 100 mg/kg | ED50 (Mus musculus [3]): 3.35 mg/kg

NNC(=O)c1nnc2n1-c1ccc(Cl)cc1C(c1ccccc1)=NC2
ED50 (Mus musculus [1]): 500 mg/kg | ED50 (Mus musculus [2]): 50 mg/kg | ED50 (Mus musculus [3]): 2.8 mg/kg

CN(C)CCNC(=O)c1nnc2n1-c1ccc(Cl)cc1C(c1ccccc1)=NC2
ED50 (Mus musculus [1]): 300 mg/kg | ED50 (Mus musculus [2]): 100 mg/kg | ED50 (Mus musculus [3]): 50 mg/kg

COC(=O)c1nnc2n1-c1ccc(Cl)cc1C(c1ccccc1)=NC2
ED50 (Mus musculus [1]): 40 mg/kg | ED50 (Mus musculus [2]): 5 mg/kg | ED50 (Mus musculus [3]): 0.9 mg/kg

CCOC(=O)NN(/C=C/c1nnc2n1-c1ccc(Cl)cc1C(c1ccccc1Cl)=NC2)C(=O)OCC
ED50 (Mus musculus [1]): > 400 mg/kg | ED50 (Mus musculus [2]): > 100 mg/kg | ED50 (Mus musculus [3]): > 800 mg/kg

C=Cc1nnc2n1-c1ccc(Cl)cc1C(c1ccccc1Cl)=NC2
ED50 (Mus musculus [1]): 150 mg/kg | ED50 (Mus musculus [2]): 6.25 mg/kg | ED50 (Mus musculus [3]): 4.2 mg/kg

OCC(O)c1nnc2n1-c1ccc(Cl)cc1C(c1ccccc1F)=NC2 (configuration not stated)
ED50 (Mus musculus [1]): 200 mg/kg | ED50 (Mus musculus [2]): 5 mg/kg | ED50 (Mus musculus [3]): 1.5 mg/kg

CNC1=Nc2ccc(Cl)cc2C(c2ccccc2)=[N+]([O-])C1 [CHLORDIAZEPOXIDE]
ED50 (Mus musculus [1]): 100 mg/kg | ED50 (Mus musculus [2]): 40 mg/kg | ED50 (Mus musculus [3]): 8 mg/kg
